Laboratory results taken from patent publication US12258571B2, “Methods and compositions for inducible expression of neurotrophic factors” (CEDARS-SINAI MEDICAL CENTER, priority 2018, dated 2025).
Values joined by “and” are separate entries in the source; they are usually repeats but may differ in a detail not shown here. Equal values may be shown once.

Key:
TRE-Bi promoter [1] = assay: Dual-luciferase assay in nucleofected iNPCs; format: cell-based, human; settings: 24-hour dox treatment; iNPCs nucleofected with pB-RTP-Tet-GDNF/memClover-FLuc, pBase and Ef1-Renilla
Description: In all experiments, dox solution was maintained in light protection and 4° C. For cell culture, dox (Clontech 631311) was added to culture media at 100 ng/ml. For in vivo work, animals were administered dox (15 μg dox/g weight) every 3-4 days by oral gavage (e.g. 60 μl for a 20 g animal), using a soft-tipped feeding needle (Instech FTP-20-30; Plymouth Meeting, PA) attached to a 1 ml syringe (BD 309659; Franklin Lakes, NJ). To quantitatively assess reporter expression from the TRE-Bi promoter, iNPCs were nucleofected as above, along with an Ef1-Renilla plasmid that constitutively expresses Renilla luciferase for protein normalization. […] To assess the kinetics of the TRE-Bi inducible promoter, firefly luciferase activity was quantified in a live culture of the nucleofected iNPCs grown in the presence of beetle luciferin (FIG. 1F). […] As a clinically-relevant cell product would need to be expanded and banked, the Inventors assessed if the TRE-Bi promoter would remain functionally responsive with an extensive cell expansion and freeze.

TRE-Bi promoter [2] = assay: Flow analysis of GFP induction after extensive cell expansion and freeze; format: cell-based, human; settings: 24 hours after adding dox; cells 6 months in culture after nucleofection, two freeze/thaw cycles
Description: FIG. 5. IPSC-derived NPCs nucleofected with pB-RTP-Tet-GDNF/memClover-FLuc retain their ability to be induced upon the addition of dox. 83% of BF^+ cells were also GFP^+ (P5 Gate) 24 hours after adding dox to cells that were grown in culture for 6 months after nucleofection. Note: Cells were also exposed to two freeze/thaw cycles and were frozen for a total of 10 months during this period.
To quantitatively assess reporter expression from the TRE-Bi promoter, iNPCs were nucleofected as above, along with an Ef1-Renilla plasmid that constitutively expresses Renilla luciferase for protein normalization. […] To assess the kinetics of the TRE-Bi inducible promoter, firefly luciferase activity was quantified in a live culture of the nucleofected iNPCs grown in the presence of beetle luciferin (FIG. 1F). […] As a clinically-relevant cell product would need to be expanded and banked, the Inventors assessed if the TRE-Bi promoter would remain functionally responsive with an extensive cell expansion and freeze.

GDNF = assay: Blinded postmortem GDNF scoring (DAB stain) of transplanted tissue; format: in vivo, NOD-SCID mice; set-up: key: (−) no positive staining; (+) slight staining; (++) moderate staining; (+++) extensive staining; settings: one line per animal; for GDNF Str/CC: striatum/corpus callosum
Description: In all experiments, dox solution was maintained in light protection and 4° C. For cell culture, dox (Clontech 631311) was added to culture media at 100 ng/ml. For in vivo work, animals were administered dox (15 μg dox/g weight) every 3-4 days by oral gavage (e.g. 60 μl for a 20 g animal), using a soft-tipped feeding needle (Instech FTP-20-30; Plymouth Meeting, PA) attached to a 1 ml syringe (BD 309659; Franklin Lakes, NJ). Nucleofected iNPCs, which underwent two rounds of FACS for BFP, were transplanted into the striatum (41 of cells at 100,000 cells/μ1 into each hemisphere) of 6-month old NOD-SCID mice (Nod.cb17-Prkdc^scid/J, Jackson Lab #1303; Bar Harbor, ME). Three days before transplantation, a subset of cells was treated with dox. For transplantation, cells were dissociated and diluted to a final concentration of 100,000 cells/μl in conditioned media, and maintained on ice. Animals were anesthetized with isoflurane and placed in a stereotaxic frame. Cells were injected bilaterally relative to bregma at 0.7 mm rostral and +/−2.0 mm lateral. A 5 μl Hamilton microsyringe backfilled with PBS was loaded with 2 μl of cell solution and inserted to a depth of −4.00 mm. The microsyringe was then raised to −3.50 mm and the cell solution was injected at 1 μl/min. After cell injection, the microsyringe was raised to −3.00 mm, held for 2 minutes and slowly withdrawn. Animals were checked daily. Immunostained sections were photographed using a Leica DM200 LED microscope. Images were scored based on stain intensity of DAB GDNF stain by an observer blinded to the experiment conditions (dox vs no dox). Finally, DAB staining, which provides a high sensitivity of protein detection and has effectively tracked human GDNF-expressing NPC transplants, was used to determine the levels and location of GDNF expression.

[3] = animals that ended trial OFF dox (dox withdrawn)
[4] = animals that ended trial ON dox

In the case of `C[C@H]1c2cccc(O)c2C(=O)C2=C(O)[C@]3(O)C(=O)C(C(N)=O)=C(O)[C@@H](N(C)C)[C@@H]3[C@@H](O)[C@@H]21` [dox, doxycycline], the “increase in firefly luciferase activity (normalized to Renilla)” value (TRE-Bi promoter [1]) is reported as roughly 1300 fold, the “BFP+ cells induced to express GFP” value (TRE-Bi promoter [2]) is reported as 83% and the “GDNF Meninges” value (GDNF; [3]) is reported as “−”. The “GDNF Str/CC” value (GDNF; [3]) was “−”, the “GDNF Meninges” value (GDNF; [4]) was “+++ and − (3×) and + (2×) and ++” and the “GDNF Str/CC” value (GDNF; [4]) was “− (3×) and ++ (3×) and +”.
